# Patent publication US5886142A, “Radiolabeled thrombus imaging agents” (Thomas Jefferson University, priority 1997, dated 1999)
# Positions of bridges follow the written chain, without caps; N, C: chain ends. Non-standard residues stand in square brackets, D forms with d. No end group written: not given here. *: point of attachment. GABA = NCCCC(=O)O; Acm = CC(=O)NC*
# Assays:
# MDA-231 cells = assay: Cell adhesion assay (method of Tuszynski et al.); format: cell-based; conditions: not radiolabeled; peptide dried in microtiter wells, one hour incubation
# Protocol: Using the method of Tuszynski et al. J. Cell Biol. 1992, 116, 209-221, the hexapeptide Cys Ser Val Thr Cys Gly (SEQ ID NO: 4) and fibrinectin were used as controls, and the composition of SEQ ID NO: 7, as a test peptide. None of the peptides or fibrinectin were radiolabeled. Fifty μl of a […] saline solution of the peptide or protein was air dried overnight in wells of a microtiter plate. After drying, the wells were blocked with 50 μl of BSA for 30 minutes and washed with Hepes-bufferedsaline. The wells were incubated for one hour with a titer of 3.3×10^4 MDA-231 cells in 100 μl of Hepes-buffered saline containing 5 mM glucose, 1 mM MgCl2 and 1 mM CaCl2. The wells were washed once with PBS and adherent cells were fixed with 3% glutaraldehyde and stained with Giemsa overnight. The total number of adherent cells were counted under light microscopy.
# platelets = conditions: cited from earlier work
# four tumor cell lines = conditions: cited from earlier work
# [1] = test system: CD36 transfected Jurkat cells; conditions: radioiodinated (I-125); cited from earlier work
# [2] = In vitro stability of the thrombus imaging agent by periodic HPLC; format: physicochemical; conditions: up to 18 hours after preparation
# Protocol: The purity of the product was examined by HPLC (Rainin, Emeryville, Calif.) using a reverse phase C-18 column and gradient solvents of 0.1% TFA in water (solvent A) and 0.1% TFA in acetonitrile (solvent B). The gradient was such that at zero minutes, solvent A was 30%, reaching to […] 100% in 30 minutes. The flow rate was 1 ml/minute. The HPLC was equipped with a u.v. detector set at 278 nm, a 2" NaI (Tl) gamma counter and a rate meter. The radiolabeled composition (SEQ ID NO: 7), the thrombus imaging agent, was eluted at retention time 9.3 minutes, and the unbounded technetium at 3.7 minutes.
# The in vitro stability of the thrombus imaging agent was examined for up to 18 hours after preparation.
# pre-formed clots = assay: Binding to pre-formed human blood clots in vitro; conditions: thrombin 15 minutes prior to addition of the agent
# Protocol: (§1) In several 1 ml syringes, approximately 0.7 ml of blood was drawn, without any anti-coagulant, from a healthy human volunteer. In four of the syringes, approximately 2 μCi of the thrombus imaging agent was added and mixed, and followed by the addition of 15 i.u. units of thrombin and mixed again. Clots were allowed to form for 15 minutes at 22° C. The fluid was expelled and reserved, and the clots were washed with 0.9% NaCl. The wash was combined with the reserved expelled fluid. The clots, still in the syringe, were placed over a gamma camera (GE 300 STARCAM) and imaged for a combined total count of 35,000. The forming clots were expelled from the syringes, collected in four separate test tubes, and placed in a gamma counter (Packard 5000 series) together with the previously reserved expelled liquid for each respective sample. The percentage of radioactivity associated with each clot was determined.
# In the four remaining test tubes, thrombin was added and allowed to incubate for 15 minutes, prior to the addition of the thrombus imaging agent. The pre-formed clots were treated as described above and measured for radioactivity
# [3] = design: species or system New Zealand white rabbit; conditions: rabbit, in vivo, iv
# Protocol: Alternatively, the stability of the thrombus imaging agent was determined by comparing an HPLC elution plot of the radiolabeled composition (SEQ ID NO: 7) and of the radioactivity excreted in the urine of the rabbit given the thrombus imaging agent four hours previously. For the in vivo analysis, a preparation containing the radiolabeled composition (SEQ ID NO: 7) was injected intravenously into a New Zealand white rabbit. Urine was collected from the rabbit at four hours post-injection and a 20 μl portion of which was analyzed by HPLC as described above. The animal had not voided prior to collection of this sample.
# resting platelets = assay: Binding of thrombus imaging agent to resting platelets; design: species or system human; conditions: absent thrombin, 22° C., 15 minutes
# Protocol: A thrombus imaging agent, i.e., the composition of SEQ ID NO: 7 labeled with Tc-99m, was assayed for its ability to bind to resting and activated platelets. Again, the platelets used in this assay were obtained from healthy volunteers. Platelets (0.5 ml; 0.7×10^9 platelets), which were stored for up to four days and 20 μl of the thrombus imaging agent (~1.9×10^-3 μg) were dispensed into each of six test tubes. To activate the platelets, 6 i.u. of thrombin was added to three of the tubes and gently mixed until a visible clot was formed. The remaining three tubes (absent thrombin) served as controls (i.e., resting platelets). The tubes were held at 22° C. for 15 minutes and then centrifuged at 2000 g for 10 minutes. The supernatant was separated and the platelets washed with 0.9% NaCl and centrifuged again at 2000 g for 10 minutes. Radioactivity in the supernatant and washings combined, and that associated with the platelet samples, was counted and the percentage of radiolabeled platelets in each tube was determined.
# forming clots = assay: Binding to forming human blood clots in vitro
# Protocol: as §1, with “Clots were allowed to form for 15 minutes at 22° C.” left out
# Images of these (broken) clots are shown in FIG. 4C, in which 51±1.2% of the added radiolabel was taken up. The increasing uptake of the thrombus imaging agent over a prolonged period of time in a forming clot in vitro is analogous to the situation in patients in whom clots continue to form slowly for a long period of time.
# activated platelets = assay: Binding of Tc-99m labeled peptide to activated platelets; design: species or system human; conditions: 6 i.u. thrombin, 22° C., 15 minutes
# Protocol: The labeled cyclized peptide was then assayed for its ability to bind to resting and activated platelets. The platelets used in this assay were obtained from healthy human volunteers. Platelets (0.5 ml; 0.7×10^9 platelets), which were stored in a salt balanced medium for up to four days and 20 μl of the technetium labeled cyclized peptide (approximately 1.9×10^-3 mg) were dispensed into each of six test tubes. To activate the platelets, 6 i.u. of thrombin was added to three of the tubes and gently mixed until a visible clot was formed. The remaining three tubes (absent thrombin) served as controls, i.e., resting platelets. The tubes were held at 22° C. for 15 minutes and then centrifuged at 2000 g for 10 minutes. The supernatant was separated and the platelets washed with 0.9% NaCl and centrifuged again at 2000 g for 10 minutes. Radioactivity in the supernatant and washings combined, and that associated with the platelet samples, was counted and the percentage of radiolabeled platelets in each tube was determined. […]
# A thrombus imaging agent, i.e., the composition of SEQ ID NO: 7 labeled with Tc-99m, was assayed for its ability to bind to resting and activated platelets. […] Radioactivity in the supernatant and washings combined, and that associated with the platelet samples, was counted and the percentage of radiolabeled platelets in each tube was determined.
# [4] = test system: thrombus in femoral artery; assay: Gamma camera imaging of experimental arterial thrombus in vivo; design: species or system New Zealand white albino rabbit; conditions: rabbit, intravenous, gamma camera image 15 minutes after administration (FIG. 6)
# Text: An experimental clot was induced in a femoral artery of a rabbit and imaged by scintigraphy.
# A New Zealand white albino rabbit (3.5 kg) was anesthetized with a mixture of ketamine/zylaxine and placed in the supine position on an x-ray table. The animal was not heparinized. A small incision was made in the neck to expose the right carotid artery; a catheter inserted and with the assistance of a guidewire and a fluoroscope, the catheter was advanced in the left femoral artery. […] The puncture was confirmed when contrast agent was injected. A 3 mm×2 cm thrombogenic coil (Cooks Inc., Bloomington, Ind.) was placed in the catheter, and with the help of the guidewire was lodged in the left femoral artery above the hip joint, near the bladder (FIG. 5B).
# Approximately 25 minutes after the insertion of the catheter and coil, 2.4 μCi (10 μg) of the thrombus imaging agent was injected intravenously into the animal and serial gamma camera images were obtained.
substance,measurement,setting,value
Gly (D)Ala Gly Gly Aba Tyr Cys(Acm) Ser Val Thr Cys(Acm) Gly (G[dA]GG[GABA]YC(Acm)SVTC(Acm)G) [SEQ ID NO: 7],lower cell adhesion as compared to fibronectin,MDA-231 cells,approximately 17%
same,"proportion of cells demonstrating cell adhesion, test peptide versus hexapeptide (SEQ ID NO: 4)",MDA-231 cells,No statistical difference
VCTGSC (cysteine pairing not given here) [SEQ ID NO: 6],effect on ADP-induced platelet aggregation,platelets,no biological activity
cysteine protected form: derivative of SEQ ID NO: 4 in which the two cysteine residues are blocked by acetaminomethyl (Acm) (C(Acm)SVTC(Acm)G),binding to four tumor cell lines relative to the native sequence,four tumor cell lines,approximately to the same extent as the native sequence
same,effect on ADP-induced platelet aggregation,platelets,inhibited ADP-induced platelet aggregation
ANKHYF [SEQ ID NO: 5],effect on ADP-induced platelet aggregation,platelets,no biological activity
YCSVTCG (cysteine pairing not given here) [SEQ ID NO: 3],binding to CD36 transfected Jurkat cells,[1],binds strongly
thrombus imaging agent: the composition of SEQ ID NO: 7 labeled with Tc-99m (G[dA]GG[GABA]YC(Acm)SVTC(Acm)G; also: Tc-99m label),quantity of free Tc-99m versus time of preparation,[2],had not increased
same,radioactivity level measured in the preformed clots,pre-formed clots,6.4±3.2%
same,quantity of free Tc-99m in urine versus the injected preparation,[3],substantially the same
same,added radiolabel bound to resting platelets,resting platelets,2.1±0.5%
same,"gamma camera images, radioactivity in forming versus preformed clots","forming clots; FIGS. 4A and 4B, qualitative",more radioactivity in the forming clots than in the preformed clots
same,radioactivity level measured in the forming clot,"forming clots; agent added before thrombin, 15 minutes at 22° C.",27.6±0.2%
same,added radiolabel taken up by forming clots,forming clots; incubated for 2 hours at 22° C.,51±1.2%
same,added radiolabel bound to activated platelets,activated platelets,12.5±1.2%
same,uptake of radioactivity at the site of the punctured artery (clot),[4],intense uptake of radioactivity
"labeled cyclized peptide: cyclized peptide Cys Ser Val Thr Cys Gly (SEQ ID NO: 4) directly labeled with Tc-99m at sulfhydryl moieties (CSVTCG; also: cyclized, kind not given here, directly labeled with Tc-99m at sulfhydryl moieties)",added radiolabel bound to activated platelets,activated platelets,< 2%
cyclic form: cyclic form of SEQ ID NO: 4 in which two cysteine residues are cyclized (CSVTCG; disulfide 1-5 (inferred)),binding to four tumor cell lines relative to the native sequence,four tumor cell lines,approximately to the same extent as the native sequence
same,effect on ADP-induced platelet aggregation,platelets,inhibited ADP-induced platelet aggregation
